Assays:
[1] = biological target: Serine/threonine-protein kinase WNK1 (Homo sapiens) (UniProt Q9H4A3); assay: Inhibition of human recombinant Wnk1 at 40 nM related to control ULK1
[2] = biological target: Tyrosine-protein kinase Fyn (Homo sapiens) (UniProt P06241); assay: Inhibition of human recombinant FYN at 40 nM in presence of ATP by radiometric assay relative to control
[3] = biological target: T1, Ephrin type-B receptor 4 (Homo sapiens) (UniProt P54760); assay: Inhibition of human recombinant EphB4 at 40 nM related to control ULK1
T1 sequence (whole entry): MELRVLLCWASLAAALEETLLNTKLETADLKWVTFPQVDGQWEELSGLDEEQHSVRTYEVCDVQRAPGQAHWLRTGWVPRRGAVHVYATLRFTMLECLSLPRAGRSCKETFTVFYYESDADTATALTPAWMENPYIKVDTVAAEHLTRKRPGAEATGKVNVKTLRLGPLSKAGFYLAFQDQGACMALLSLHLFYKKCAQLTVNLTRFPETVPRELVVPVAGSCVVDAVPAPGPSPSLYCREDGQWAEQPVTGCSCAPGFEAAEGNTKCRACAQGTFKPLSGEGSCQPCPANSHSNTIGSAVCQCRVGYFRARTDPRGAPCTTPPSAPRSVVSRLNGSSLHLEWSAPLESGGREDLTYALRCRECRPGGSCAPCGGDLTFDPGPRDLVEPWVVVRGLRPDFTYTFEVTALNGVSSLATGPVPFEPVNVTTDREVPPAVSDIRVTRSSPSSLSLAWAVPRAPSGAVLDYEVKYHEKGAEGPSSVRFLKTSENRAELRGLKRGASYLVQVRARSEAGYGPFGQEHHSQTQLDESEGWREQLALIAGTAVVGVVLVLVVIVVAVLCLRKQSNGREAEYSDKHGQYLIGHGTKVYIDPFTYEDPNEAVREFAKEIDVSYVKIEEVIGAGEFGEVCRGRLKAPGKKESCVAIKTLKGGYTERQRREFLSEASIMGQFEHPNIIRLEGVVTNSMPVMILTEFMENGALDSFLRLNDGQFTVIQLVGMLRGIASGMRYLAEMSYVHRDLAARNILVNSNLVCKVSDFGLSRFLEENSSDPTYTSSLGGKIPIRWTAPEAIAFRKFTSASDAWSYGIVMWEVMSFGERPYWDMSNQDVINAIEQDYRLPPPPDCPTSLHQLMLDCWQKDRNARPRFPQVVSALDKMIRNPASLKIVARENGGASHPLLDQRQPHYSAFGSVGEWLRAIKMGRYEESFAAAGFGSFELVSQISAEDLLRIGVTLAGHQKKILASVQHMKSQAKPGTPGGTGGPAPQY

[4] = biological target: T2, Serine/threonine-protein kinase Sgk1 (Homo sapiens) (UniProt O00141); assay: Inhibition of human recombinant SGK1 at 500 nM related to control ULK1
T2 sequence (whole entry): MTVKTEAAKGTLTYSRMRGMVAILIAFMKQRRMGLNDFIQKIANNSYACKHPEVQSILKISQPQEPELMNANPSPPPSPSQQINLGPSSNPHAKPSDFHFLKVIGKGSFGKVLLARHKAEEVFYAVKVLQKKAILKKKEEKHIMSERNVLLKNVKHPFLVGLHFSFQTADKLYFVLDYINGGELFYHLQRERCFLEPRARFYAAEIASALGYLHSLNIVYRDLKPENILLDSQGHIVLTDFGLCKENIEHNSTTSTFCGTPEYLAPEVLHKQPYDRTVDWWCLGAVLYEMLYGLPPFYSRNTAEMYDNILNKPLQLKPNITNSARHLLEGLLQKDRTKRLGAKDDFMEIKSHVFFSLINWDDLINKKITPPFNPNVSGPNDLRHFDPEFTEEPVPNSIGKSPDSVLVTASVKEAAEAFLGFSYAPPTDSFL

[5] = biological target: Interleukin-1 receptor-associated kinase 1 (Homo sapiens) (UniProt P51617); assay: Inhibition of human recombinant IRAK1 at 500 nM in presence of ATP by radiometric assay relative to control
[6] = biological target: TGF-beta receptor type-2 (Homo sapiens) (UniProt P37173); assay: Inhibition of human recombinant TGFbR2 at 15 nM related to control ULK1
[7] = biological target: T3, Eukaryotic translation initiation factor 2-alpha kinase 3 (Homo sapiens) (UniProt Q9NZJ5); assay: Inhibition of human recombinant PEK at 15 nM related to control ULK1
T3 sequence (whole entry): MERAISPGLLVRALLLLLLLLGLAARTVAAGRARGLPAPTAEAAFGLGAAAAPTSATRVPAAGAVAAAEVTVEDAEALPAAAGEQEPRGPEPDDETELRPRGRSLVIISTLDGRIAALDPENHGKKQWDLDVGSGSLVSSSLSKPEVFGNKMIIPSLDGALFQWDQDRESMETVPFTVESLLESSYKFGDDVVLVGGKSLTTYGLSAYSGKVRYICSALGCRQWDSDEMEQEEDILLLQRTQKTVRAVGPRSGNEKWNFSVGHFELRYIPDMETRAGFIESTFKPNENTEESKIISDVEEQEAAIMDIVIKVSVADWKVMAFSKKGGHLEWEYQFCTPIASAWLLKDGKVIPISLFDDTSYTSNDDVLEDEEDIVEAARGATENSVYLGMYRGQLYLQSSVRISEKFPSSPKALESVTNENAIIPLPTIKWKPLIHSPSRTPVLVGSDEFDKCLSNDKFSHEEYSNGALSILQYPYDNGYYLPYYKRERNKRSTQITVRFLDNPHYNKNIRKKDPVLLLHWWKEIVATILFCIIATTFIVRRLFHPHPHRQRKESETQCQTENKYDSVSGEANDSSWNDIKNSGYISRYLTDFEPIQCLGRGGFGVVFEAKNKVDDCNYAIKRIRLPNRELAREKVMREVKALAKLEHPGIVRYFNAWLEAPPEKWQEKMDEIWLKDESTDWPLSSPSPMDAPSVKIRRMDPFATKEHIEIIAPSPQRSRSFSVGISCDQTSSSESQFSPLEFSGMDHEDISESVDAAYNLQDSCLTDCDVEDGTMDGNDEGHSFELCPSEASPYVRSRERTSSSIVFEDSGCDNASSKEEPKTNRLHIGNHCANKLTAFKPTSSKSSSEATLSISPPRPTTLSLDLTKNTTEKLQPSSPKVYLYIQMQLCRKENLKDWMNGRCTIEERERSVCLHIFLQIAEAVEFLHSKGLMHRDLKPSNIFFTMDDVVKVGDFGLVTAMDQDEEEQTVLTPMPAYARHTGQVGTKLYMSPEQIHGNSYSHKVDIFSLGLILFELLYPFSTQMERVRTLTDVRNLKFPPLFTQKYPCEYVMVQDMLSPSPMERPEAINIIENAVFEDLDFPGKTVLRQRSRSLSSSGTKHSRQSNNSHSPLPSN

Sequence of Tyrosine-protein kinase Fyn (Homo sapiens) (P06241 2-537 limits assumed): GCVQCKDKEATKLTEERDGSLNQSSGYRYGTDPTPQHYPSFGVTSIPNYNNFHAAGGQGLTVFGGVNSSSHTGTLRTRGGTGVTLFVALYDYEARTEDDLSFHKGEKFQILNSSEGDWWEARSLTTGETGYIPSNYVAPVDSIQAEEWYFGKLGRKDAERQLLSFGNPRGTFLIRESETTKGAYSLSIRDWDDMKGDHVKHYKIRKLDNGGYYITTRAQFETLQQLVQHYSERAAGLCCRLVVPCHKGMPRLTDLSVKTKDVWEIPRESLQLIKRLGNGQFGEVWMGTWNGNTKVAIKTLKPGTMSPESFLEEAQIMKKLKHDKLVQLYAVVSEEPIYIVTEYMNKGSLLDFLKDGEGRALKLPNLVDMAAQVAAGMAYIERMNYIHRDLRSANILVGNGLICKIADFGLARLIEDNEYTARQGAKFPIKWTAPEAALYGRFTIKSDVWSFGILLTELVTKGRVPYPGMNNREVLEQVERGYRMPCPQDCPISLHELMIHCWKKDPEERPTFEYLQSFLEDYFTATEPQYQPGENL
Sequence of Serine/threonine-protein kinase WNK1 (Homo sapiens) (Q9H4A3 whole entry, looked up): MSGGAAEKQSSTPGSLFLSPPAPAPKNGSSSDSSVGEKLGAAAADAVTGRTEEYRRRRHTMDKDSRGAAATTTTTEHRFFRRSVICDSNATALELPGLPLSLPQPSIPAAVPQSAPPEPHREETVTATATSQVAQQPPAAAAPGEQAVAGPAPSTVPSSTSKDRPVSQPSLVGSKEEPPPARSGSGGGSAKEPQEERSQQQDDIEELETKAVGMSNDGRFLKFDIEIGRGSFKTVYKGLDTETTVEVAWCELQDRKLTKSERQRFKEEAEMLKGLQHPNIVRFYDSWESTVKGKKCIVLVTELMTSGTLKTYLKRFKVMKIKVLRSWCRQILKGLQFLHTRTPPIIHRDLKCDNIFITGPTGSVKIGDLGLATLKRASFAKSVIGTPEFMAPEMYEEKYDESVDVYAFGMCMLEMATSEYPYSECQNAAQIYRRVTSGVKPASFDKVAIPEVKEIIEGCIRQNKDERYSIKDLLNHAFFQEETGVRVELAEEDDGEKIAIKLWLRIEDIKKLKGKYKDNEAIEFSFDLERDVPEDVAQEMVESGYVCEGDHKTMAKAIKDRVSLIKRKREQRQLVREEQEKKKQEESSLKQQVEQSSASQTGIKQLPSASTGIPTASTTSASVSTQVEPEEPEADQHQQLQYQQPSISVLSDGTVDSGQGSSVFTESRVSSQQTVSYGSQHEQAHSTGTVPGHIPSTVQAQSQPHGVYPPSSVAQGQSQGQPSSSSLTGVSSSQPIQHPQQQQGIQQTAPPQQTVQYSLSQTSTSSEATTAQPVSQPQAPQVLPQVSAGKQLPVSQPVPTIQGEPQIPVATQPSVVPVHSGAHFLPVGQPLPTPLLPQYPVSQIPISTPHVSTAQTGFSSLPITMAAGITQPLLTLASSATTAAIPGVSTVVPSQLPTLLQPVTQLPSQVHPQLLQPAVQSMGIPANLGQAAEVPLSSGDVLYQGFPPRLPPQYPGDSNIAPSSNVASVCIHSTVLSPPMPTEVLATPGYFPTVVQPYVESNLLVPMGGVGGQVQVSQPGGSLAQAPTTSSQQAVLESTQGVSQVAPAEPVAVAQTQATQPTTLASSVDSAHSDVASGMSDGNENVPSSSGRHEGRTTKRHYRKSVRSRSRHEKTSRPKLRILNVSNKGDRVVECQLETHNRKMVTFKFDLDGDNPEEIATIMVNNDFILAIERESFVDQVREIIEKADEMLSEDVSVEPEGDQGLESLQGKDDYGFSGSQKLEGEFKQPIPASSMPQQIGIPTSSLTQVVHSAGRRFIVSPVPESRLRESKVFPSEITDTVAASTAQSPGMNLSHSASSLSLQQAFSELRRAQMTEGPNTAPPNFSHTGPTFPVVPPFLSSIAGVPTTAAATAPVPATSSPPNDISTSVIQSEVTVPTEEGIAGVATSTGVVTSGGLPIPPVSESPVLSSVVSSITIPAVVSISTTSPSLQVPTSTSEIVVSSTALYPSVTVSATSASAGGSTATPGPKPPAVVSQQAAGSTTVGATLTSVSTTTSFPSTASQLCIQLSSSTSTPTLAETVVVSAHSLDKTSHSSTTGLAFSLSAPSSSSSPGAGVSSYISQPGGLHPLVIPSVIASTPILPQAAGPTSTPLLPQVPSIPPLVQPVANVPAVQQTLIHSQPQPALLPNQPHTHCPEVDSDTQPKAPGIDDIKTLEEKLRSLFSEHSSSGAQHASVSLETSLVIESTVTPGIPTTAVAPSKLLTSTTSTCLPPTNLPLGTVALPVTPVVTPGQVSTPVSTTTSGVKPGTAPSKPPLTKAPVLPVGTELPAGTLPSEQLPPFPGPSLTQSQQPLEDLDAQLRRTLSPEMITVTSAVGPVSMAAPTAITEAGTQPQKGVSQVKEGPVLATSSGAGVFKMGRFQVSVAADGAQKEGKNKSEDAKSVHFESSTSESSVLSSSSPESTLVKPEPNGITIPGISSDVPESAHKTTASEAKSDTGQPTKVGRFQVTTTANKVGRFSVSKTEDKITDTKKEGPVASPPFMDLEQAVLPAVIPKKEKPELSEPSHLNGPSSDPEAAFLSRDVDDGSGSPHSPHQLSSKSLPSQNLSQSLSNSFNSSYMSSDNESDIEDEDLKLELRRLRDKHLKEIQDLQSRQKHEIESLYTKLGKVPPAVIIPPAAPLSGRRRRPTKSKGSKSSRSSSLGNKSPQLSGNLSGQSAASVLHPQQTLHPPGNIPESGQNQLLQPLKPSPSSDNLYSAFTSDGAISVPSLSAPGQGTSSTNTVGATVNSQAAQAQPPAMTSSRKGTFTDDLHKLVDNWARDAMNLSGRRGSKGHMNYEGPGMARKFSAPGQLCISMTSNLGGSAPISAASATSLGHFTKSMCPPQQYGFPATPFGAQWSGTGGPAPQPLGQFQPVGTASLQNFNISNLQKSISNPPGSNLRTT
Sequence of Interleukin-1 receptor-associated kinase 1 (Homo sapiens) (P51617 whole entry, looked up): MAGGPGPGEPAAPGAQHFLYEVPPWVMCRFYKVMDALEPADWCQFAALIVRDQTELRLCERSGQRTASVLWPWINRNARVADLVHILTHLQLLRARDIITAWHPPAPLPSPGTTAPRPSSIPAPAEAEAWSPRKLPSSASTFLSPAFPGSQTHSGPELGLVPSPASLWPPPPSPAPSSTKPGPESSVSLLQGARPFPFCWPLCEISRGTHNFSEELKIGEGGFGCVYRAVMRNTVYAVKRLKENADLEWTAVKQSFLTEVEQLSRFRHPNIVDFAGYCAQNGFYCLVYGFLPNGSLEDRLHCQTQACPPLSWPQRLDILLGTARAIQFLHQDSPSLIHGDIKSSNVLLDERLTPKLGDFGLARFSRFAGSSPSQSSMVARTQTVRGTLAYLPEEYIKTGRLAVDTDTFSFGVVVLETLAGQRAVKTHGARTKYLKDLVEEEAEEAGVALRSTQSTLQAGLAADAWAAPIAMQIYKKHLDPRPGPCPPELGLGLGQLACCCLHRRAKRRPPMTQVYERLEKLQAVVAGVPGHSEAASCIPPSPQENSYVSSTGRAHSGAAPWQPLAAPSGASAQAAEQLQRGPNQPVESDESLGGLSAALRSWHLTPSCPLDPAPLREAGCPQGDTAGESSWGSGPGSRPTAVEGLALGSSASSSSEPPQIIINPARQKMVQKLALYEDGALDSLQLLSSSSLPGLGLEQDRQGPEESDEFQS
Sequence of TGF-beta receptor type-2 (Homo sapiens) (P37173 whole entry): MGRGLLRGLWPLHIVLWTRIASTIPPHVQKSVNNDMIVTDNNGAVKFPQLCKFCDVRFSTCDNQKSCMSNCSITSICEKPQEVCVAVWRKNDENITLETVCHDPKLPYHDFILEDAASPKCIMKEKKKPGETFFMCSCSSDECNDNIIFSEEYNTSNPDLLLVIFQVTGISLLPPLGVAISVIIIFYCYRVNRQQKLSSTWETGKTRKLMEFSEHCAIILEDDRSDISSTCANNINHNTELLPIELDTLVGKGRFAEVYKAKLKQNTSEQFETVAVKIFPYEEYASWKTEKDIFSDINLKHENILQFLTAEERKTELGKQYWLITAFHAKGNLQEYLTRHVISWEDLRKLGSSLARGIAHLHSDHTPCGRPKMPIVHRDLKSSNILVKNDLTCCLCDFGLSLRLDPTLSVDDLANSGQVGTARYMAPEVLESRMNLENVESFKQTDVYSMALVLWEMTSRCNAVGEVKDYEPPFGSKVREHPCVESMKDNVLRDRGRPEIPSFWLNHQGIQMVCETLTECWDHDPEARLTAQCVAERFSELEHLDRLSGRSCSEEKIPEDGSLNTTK

O=C(N[C@@H](C1CC1)C(F)(F)F)c1cc(-c2cnn3cc(-c4ccc(F)cc4)cnc23)cs1
fold change (FC) [1]: 0.16 | inhibition [2]: 0% | fold change (FC) [3]: 0

CNC(=O)c1ccccc1Oc1nc(Nc2cc(OC)c(OC)c(OC)c2)ncc1Br
fold change (FC) [4]: 0.03 | inhibition [5]: 15%

CC(C)[C@H](NC(=O)c1cc(-c2cnn3cc(-c4ccc(OCCN5CCCCC5)cc4)cnc23)cs1)C(F)(F)F
fold change (FC) [6]: 0.48 | fold change (FC) [7]: 0
